Data as given in article PMC10882719 (Frontiers in Neuroscience, 2024).

What was measured:
[1] = biological target: T1, 5HT reuptake (SERT), rat brain synaptosomes (Rattus norvegicus, UniProt P31652); assay: Uptake inhibition assay, [3H]5-HT, rat brain synaptosomes; type: biochemical
T1 construct: Rat brain synaptosomes were isolated from Sprague Dawley rats (200-250 g); from tissue; host or cells: rat brain synaptosomes (Sprague Dawley)

[2] = biological target: T2, NE uptake (NET), rat brain synaptosomes (Rattus norvegicus, UniProt Q63380); assay: Uptake inhibition assay, [3H]NE, rat brain synaptosomes; type: biochemical
T2 construct: Rat brain synaptosomes were isolated from Sprague Dawley rats (200-250 g); from tissue; host or cells: rat brain synaptosomes (Sprague Dawley)

[3] = biological target: T3, DA uptake (DAT), rat brain synaptosomes (Rattus norvegicus, UniProt P23977); assay: Uptake inhibition assay, [3H]DA, rat brain synaptosomes; type: biochemical
T3 construct: Rat brain synaptosomes were isolated from Sprague Dawley rats (200-250 g); from tissue; host or cells: rat brain synaptosomes (Sprague Dawley)

[4] = biological target: T4, 5HT release (SERT), rat brain synaptosomes (Rattus norvegicus, UniProt P31652); assay: Release assay, [3H]5-HT, superfused rat brain synaptosomes; type: biochemical
T4 construct: Rat brain synaptosomes were isolated from Sprague Dawley rats (200-250 g); from tissue; host or cells: rat brain synaptosomes (Sprague Dawley)
Description: (§1) Test compounds and synaptosomes were prepared as described for uptake inhibition assays. Synaptosomes treated with [^3H] 5-HT, [^3H] DA or [^3H] NE were loaded onto filter chambers containing GF/C filters and placed in a superfusion system. Oxygenated Krebs buffer was perfused through the chambers at a rate of 1.5 mL/min at 35°C using either an 8-channel or a 12-channel peristaltic pump. Trapped air bubbles were removed from the filters prior to collecting fractions to ensure an even flow over the synaptosomal bed. After a superfusion period of 45 min, 2 basal fractions were collected followed by 6 fractions following the addition of the test drug. […] After the addition of scintillation cocktail, radioactivity was counted using a Wallac® TriLux 1,450 MicroBeta counter. […] Scintillation cocktail was added, and the filters counted to determine residual radioactivity. Drug-evoked release of neurotransmitter was calculated by subtracting the average of the two basal fractions (collected prior to the drug addition), from the four fractions collected in the presence of drug. The drug-evoked release was then expressed as a percentage of the basal release. Potassium-evoked release was calculated by subtracting the average of two fractions collected prior to the addition of high KCl buffer from that in the two fractions following addition of high KCl buffer. […]

[5] = biological target: T5, NE release (NET), rat brain synaptosomes (Rattus norvegicus, UniProt Q63380); assay: Release assay, [3H]NE, superfused rat brain synaptosomes; type: biochemical
T5 construct: Rat brain synaptosomes were isolated from Sprague Dawley rats (200-250 g); from tissue; host or cells: rat brain synaptosomes (Sprague Dawley)
Description: as §1

[6] = biological target: T6, DA release (DAT), rat brain synaptosomes (Rattus norvegicus, UniProt P23977); assay: Release assay, [3H]DA, superfused rat brain synaptosomes; type: biochemical
T6 construct: Rat brain synaptosomes were isolated from Sprague Dawley rats (200-250 g); from tissue; host or cells: rat brain synaptosomes (Sprague Dawley)
Description: as §1

[7] = test system: immobility in the forced swim test; parameters: method as in Warner-Schmidt et al., 2022; details: rats, ref Warner-Schmidt et al., 2022, cited from earlier work

T6 sequence (P23977 whole entry, the tested form may be a part): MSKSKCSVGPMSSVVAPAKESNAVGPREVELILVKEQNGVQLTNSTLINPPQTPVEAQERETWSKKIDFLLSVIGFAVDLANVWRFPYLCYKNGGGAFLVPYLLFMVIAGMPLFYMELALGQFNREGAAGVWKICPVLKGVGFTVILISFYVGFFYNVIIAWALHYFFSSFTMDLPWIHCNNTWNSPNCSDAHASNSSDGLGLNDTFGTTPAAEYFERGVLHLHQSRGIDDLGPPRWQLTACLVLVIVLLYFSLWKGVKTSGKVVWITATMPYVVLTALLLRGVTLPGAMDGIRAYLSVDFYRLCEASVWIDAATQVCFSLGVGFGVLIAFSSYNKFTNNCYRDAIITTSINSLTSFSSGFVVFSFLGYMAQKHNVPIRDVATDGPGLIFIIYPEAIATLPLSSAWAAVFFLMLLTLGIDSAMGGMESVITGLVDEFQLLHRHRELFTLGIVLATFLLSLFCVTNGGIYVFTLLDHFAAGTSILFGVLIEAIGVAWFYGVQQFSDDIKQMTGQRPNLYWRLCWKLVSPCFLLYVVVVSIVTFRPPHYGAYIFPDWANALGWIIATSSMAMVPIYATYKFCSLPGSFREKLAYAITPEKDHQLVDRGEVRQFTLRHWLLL
T3 sequence (P23977 whole entry): as the sequence (P23977 whole entry, the tested form may be a part) above
T1 sequence (P31652 whole entry): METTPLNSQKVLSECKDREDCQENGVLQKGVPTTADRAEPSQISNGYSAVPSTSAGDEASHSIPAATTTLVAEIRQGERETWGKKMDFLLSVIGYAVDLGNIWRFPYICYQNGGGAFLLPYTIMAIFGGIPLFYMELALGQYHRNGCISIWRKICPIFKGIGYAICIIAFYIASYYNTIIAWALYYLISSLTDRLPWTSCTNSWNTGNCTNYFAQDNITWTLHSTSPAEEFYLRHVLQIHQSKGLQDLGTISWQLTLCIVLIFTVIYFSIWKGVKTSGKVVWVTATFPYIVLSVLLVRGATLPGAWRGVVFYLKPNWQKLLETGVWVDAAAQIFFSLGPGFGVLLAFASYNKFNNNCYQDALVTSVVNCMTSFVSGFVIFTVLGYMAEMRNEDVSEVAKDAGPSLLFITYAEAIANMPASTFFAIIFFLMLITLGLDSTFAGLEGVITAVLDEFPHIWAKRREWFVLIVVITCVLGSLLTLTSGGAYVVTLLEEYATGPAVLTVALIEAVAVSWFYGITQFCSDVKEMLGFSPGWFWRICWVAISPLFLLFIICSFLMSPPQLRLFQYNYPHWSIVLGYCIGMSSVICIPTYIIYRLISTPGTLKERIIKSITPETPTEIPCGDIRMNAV
T4 sequence (P31652 whole entry, the tested form may be a part): as the sequence (P31652 whole entry) above
T5 sequence (Q63380 1-617): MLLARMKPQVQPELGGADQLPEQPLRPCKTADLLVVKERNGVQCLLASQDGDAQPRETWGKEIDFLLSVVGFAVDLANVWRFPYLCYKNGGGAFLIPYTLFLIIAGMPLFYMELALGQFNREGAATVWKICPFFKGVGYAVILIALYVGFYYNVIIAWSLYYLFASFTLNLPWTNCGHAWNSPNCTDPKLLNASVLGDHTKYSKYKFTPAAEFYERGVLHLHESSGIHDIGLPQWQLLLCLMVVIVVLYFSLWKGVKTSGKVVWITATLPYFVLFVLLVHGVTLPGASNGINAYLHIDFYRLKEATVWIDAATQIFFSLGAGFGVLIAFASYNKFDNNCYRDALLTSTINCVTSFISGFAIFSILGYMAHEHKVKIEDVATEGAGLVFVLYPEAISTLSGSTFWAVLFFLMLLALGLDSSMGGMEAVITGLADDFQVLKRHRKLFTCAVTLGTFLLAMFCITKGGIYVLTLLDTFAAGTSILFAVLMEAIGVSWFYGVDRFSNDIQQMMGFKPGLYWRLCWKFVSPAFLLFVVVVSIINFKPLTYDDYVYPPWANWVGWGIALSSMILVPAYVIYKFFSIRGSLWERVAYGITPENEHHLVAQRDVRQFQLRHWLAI
T2 sequence (Q63380 1-617): as above

## CNC(C)C(=O)c1ccc2c(c1)OCO2 (stereo not drawn) [methylone]
[1]
  IC50: 430 nM
[2]
  IC50: 130 nM
[3]
  IC50: 2300 nM
[4]
  EC50: 620 nM
[5]
  EC50: 330 nM
[6]
  EC50: 4790 nM
[6]; rat brain synaptosomes, Figure 1C
  Amount of DA released compared to MDMA: Less DA was released
[7]; 30 min after a single human equivalent dose of 100–150 mg
  Reduction in immobility in the forced swim test: 95–98%
[7]; single dose
  Duration of reduction in immobility post-dose: at least 72 h
